Measured values from PubChem BioAssay AID328 (DTP/NCI, 2004).
Where “and” joins values, the source holds several entries; their conditions need not be identical. Identical values can stand only once. Toxic doses and inconclusive results are not listed. Rule for the calls: active = survival T/C of 150% or more; inactive = T/C below 125% in these data. Positions of bridges follow the written chain, without caps; N, C: chain ends. Non-standard residues stand in square brackets, D forms with d. Residues, ends and D or L forms follow the SMILES beside them. Aib = CC(C)(N)C(=O)O

System: BDF1 mice, P388 leukemia ip, median survival T/C
Experiment: NCI In Vivo Anticancer Drug Screen. Data for tumor model P388 Leukemia (intraperitoneal) in B6D2F1 (BDF1) mice
Settings: endpoint: median survival time, higher = longer survival
Outline: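 Survival ratio, drug arm over vehicle arm, in mice with a transplanted tumour.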

[1] = dose: 3.12 mg/kg/injection, schedule: Q01DX009 (ip), vehicle: saline
[2] = dose: 6.25 mg/kg/injection, schedule: Q01DX009 (ip), vehicle: saline
[3] = dose: 12.5 mg/kg/injection, schedule: Q01DX009 (ip), vehicle: saline
[4] = dose: 25.0 mg/kg/injection, schedule: Q01DX009 (ip), vehicle: saline
[5] = dose: 50.0 mg/kg/injection, schedule: Q01DX009 (ip), vehicle: saline
[6] = dose: 12.5 mg/kg/injection, schedule: Q01DX009 (ip), vehicle: saline with Tween-80
[7] = dose: 25.0 mg/kg/injection, schedule: Q01DX009 (ip), vehicle: saline with Tween-80
[8] = dose: 50.0 mg/kg/injection, schedule: Q01DX009 (ip), vehicle: saline with Tween-80
[9] = dose: 100.0 mg/kg/injection, schedule: Q01DX009 (ip), vehicle: saline with Tween-80
[10] = dose: 25.0 mg/kg/injection, schedule: Q01DX009 (ip), vehicle: Klucel (hydroxypropylcellulose) (HPC)
[11] = dose: 50.0 mg/kg/injection, schedule: Q01DX009 (ip), vehicle: Klucel (hydroxypropylcellulose) (HPC)
[12] = dose: 100.0 mg/kg/injection, schedule: Q04DX003 (ip), vehicle: Klucel (hydroxypropylcellulose) (HPC)
[13] = dose: 200.0 mg/kg/injection, schedule: Q04DX003 (ip), vehicle: Klucel (hydroxypropylcellulose) (HPC)
[14] = dose: 100.0 mg/kg/injection, schedule: Q01DX009 (ip), vehicle: Klucel (hydroxypropylcellulose) (HPC)
[15] = dose: 200.0 mg/kg/injection, schedule: Q01DX009 (ip), vehicle: Klucel (hydroxypropylcellulose) (HPC)
[16] = dose: 400.0 mg/kg/injection, schedule: Q01DX009 (ip), vehicle: Klucel (hydroxypropylcellulose) (HPC)
[17] = dose: 100.0 mg/kg/injection, schedule: Q04DX003 (ip), vehicle: saline with Tween-80
[18] = dose: 200.0 mg/kg/injection, schedule: Q04DX003 (ip), vehicle: saline with Tween-80
[19] = dose: 400.0 mg/kg/injection, schedule: Q04DX003 (ip), vehicle: saline with Tween-80
[20] = dose: 100.0 mg/kg/injection, schedule: Q01DX001 (ip), vehicle: Klucel (hydroxypropylcellulose) (HPC)
[21] = dose: 25.0 mg/kg/injection, schedule: Q04DX003 (ip), vehicle: saline
[22] = dose: 50.0 mg/kg/injection, schedule: Q04DX003 (ip), vehicle: saline

Measured: T/C

NC1CC[N-]CC1.NC1CC[N-]CC1.[Cl][Pt+2]([Cl])([Cl])[Cl]
inactive: [1] 109 % of control | [2] 100 % of control and 118 % of control | [3] 108 % of control | [4] 120 % of control | [5] 111 % of control

Cc1csc(NC(=O)Nc2ccc(F)cc2[N+](=O)[O-])n1
inactive: [6] 110 % of control | [7] 88 % of control | [8] 120 % of control

NCCCn1c2ccccc2c2cnccc21
inactive: dose: 5.0 mg/kg/injection, schedule: Q01DX009 (ip), vehicle: water 105 % of control | dose: 10.0 mg/kg/injection, schedule: Q01DX009 (ip), vehicle: water 94 % of control | dose: 20.0 mg/kg/injection, schedule: Q01DX009 (ip), vehicle: water 119 % of control | dose: 25.0 mg/kg/injection, schedule: Q01DX009 (ip), vehicle: water 91 % of control | dose: 25.0 mg/kg/injection, schedule: Q04DX003 (ip), vehicle: water 103 % of control | dose: 40.0 mg/kg/injection, schedule: Q01DX009 (ip), vehicle: water 119 % of control | dose: 50.0 mg/kg/injection, schedule: Q04DX003 (ip), vehicle: water 107 % of control | dose: 100.0 mg/kg/injection, schedule: Q04DX003 (ip), vehicle: water 99 % of control

O=C1NNC2CCCCC2O1 (stereo not given)
inactive: [8] 94 % of control | [9] 90 % of control

Fc1ccc(P(c2ccc(F)cc2)c2ccc(F)cc2)cc1
inactive: dose: 3.12 mg/kg/injection, schedule: Q01DX009 (ip), vehicle: Klucel (hydroxypropylcellulose) (HPC) 92 % of control | dose: 6.25 mg/kg/injection, schedule: Q01DX009 (ip), vehicle: Klucel (hydroxypropylcellulose) (HPC) 92 % of control | dose: 12.5 mg/kg/injection, schedule: Q01DX009 (ip), vehicle: Klucel (hydroxypropylcellulose) (HPC) 107 % of control | [10] 100 % of control | [11] 96 % of control | dose: 50.0 mg/kg/injection, schedule: Q04DX003 (ip), vehicle: Klucel (hydroxypropylcellulose) (HPC) 100 % of control | [12] 87 % of control | [13] 95 % of control

CCCCNC(C)(C)C(SS)c1ccc(Cl)cc1 (stereo not given)
inactive: [11] 100 % of control | [14] 115 % of control | [12] 95 % of control | [15] 105 % of control | [13] 100 % of control

CCOC(=O)NC1CC2(C=CN1C(=O)OCC)CCCCC2 (stereo not given)
inactive: dose: 37.5 mg/kg/injection, schedule: Q04DX003 (ip), vehicle: Klucel (hydroxypropylcellulose) (HPC) 113 % of control | dose: 75.0 mg/kg/injection, schedule: Q04DX003 (ip), vehicle: Klucel (hydroxypropylcellulose) (HPC) 118 % of control | dose: 150.0 mg/kg/injection, schedule: Q04DX003 (ip), vehicle: Klucel (hydroxypropylcellulose) (HPC) 112 % of control

O=[N+]([O-])c1ccc(OCc2ccc(S(=O)(=O)F)c(Cl)c2)c(Cl)c1
inactive: dose: 100.0 mg/kg/injection, schedule: Q01DX001 (ip), vehicle: saline 115 % of control | [14] 102 % of control | dose: 200.0 mg/kg/injection, schedule: Q01DX001 (ip), vehicle: saline 100 % of control | [15] 100 % of control | dose: 400.0 mg/kg/injection, schedule: Q01DX001 (ip), vehicle: saline 103 % of control | [16] 103 % of control

CC(=O)OC1CCC2(C)C3=C(CCC2C1)C1C(OC(=O)c2ccccc2[N+](=O)[O-])CC(c2ccc(=O)oc2)C1(C)CC3 (stereo not given)
inactive: dose: 0.25 mg/kg/injection, schedule: Q01DX009 (ip), vehicle: Klucel (hydroxypropylcellulose) (HPC) 102 % of control | dose: 0.5 mg/kg/injection, schedule: Q01DX009 (ip), vehicle: Klucel (hydroxypropylcellulose) (HPC) 111 % of control | dose: 1.0 mg/kg/injection, schedule: Q01DX009 (ip), vehicle: Klucel (hydroxypropylcellulose) (HPC) 100 % of control

c1ccc(P(=NC2CCCC2)(c2ccccc2)c2ccccc2)cc1
inactive: [17] 110 % of control | [18] 100 % of control | [19] 110 % of control

O=C(N/N=C/c1ccccc1Cl)c1ccccc1
inactive: [14] 109 % of control | [15] 118 % of control | [16] 90 % of control

Nc1nc(SCc2ccccc2)c2ncn(C3CCCC3)c2n1
inactive: [17] 100 % of control | [18] 100 % of control | [19] 100 % of control

CC(=O)C(Cl)C(C)=O.CC(=O)C(Cl)C(C)=O.CO.CO.[Ni]
inactive: dose: 12.0 mg/kg/injection, schedule: Q01DX001 (ip), vehicle: Klucel (hydroxypropylcellulose) (HPC) 108 % of control | dose: 25.0 mg/kg/injection, schedule: Q01DX001 (ip), vehicle: Klucel (hydroxypropylcellulose) (HPC) 95 % of control | dose: 50.0 mg/kg/injection, schedule: Q01DX001 (ip), vehicle: Klucel (hydroxypropylcellulose) (HPC) 112 % of control | [20] 104 % of control | dose: 400.0 mg/kg/injection, schedule: Q01DX001 (ip), vehicle: Klucel (hydroxypropylcellulose) (HPC) 118 % of control

CCOc1ccc2nc(N)sc2c1
inactive: [10] 118 % of control | [11] 109 % of control | [20] 86 % of control | [14] 104 % of control and 109 % of control | [12] 104 % of control | dose: 200.0 mg/kg/injection, schedule: Q01DX001 (ip), vehicle: Klucel (hydroxypropylcellulose) (HPC) 100 % of control | [13] 95 % of control | dose: 400.0 mg/kg/injection, schedule: Q04DX003 (ip), vehicle: Klucel (hydroxypropylcellulose) (HPC) 91 % of control

C=C1C(=O)OC(C)(C)C1(C)C
inactive: [3] 105 % of control | [4] 98 % of control | [5] 86 % of control and 88 % of control

CC(C)CC1NC(=O)CNC(=O)C(C)(C)NC(=O)C(C(C)C)NC(=O)C(C)(C)NC(=O)C(CCC(N)=O)NC(=O)C(C)NC(=O)C(C)(C)NC(=O)C(C)NC(=O)C(C)(C)NC(=O)C2CCCN2C(=O)CCC(C(=O)NC(CCC(N)=O)C(=O)O)NC(=O)C(C)(C)NC(=O)C(C)(C)NC(=O)C(C(C)C)NC(=O)C2CCCN2C(=O)C(C)(C)NC1=O (stereo not given) (P[Aib]A[Aib]AQ[Aib]V[Aib]GL[Aib]PV[Aib][Aib]EQ-OH; lactam N-17; configuration not given here)
inactive: dose: 1.25 mg/kg/injection, schedule: Q01DX009 (ip), vehicle: water 118 % of control | dose: 2.5 mg/kg/injection, schedule: Q01DX009 (ip), vehicle: water 102 % of control

CN1CC(C(=O)N2CCCCC2)C=C2c3cccc4[nH]cc(c34)CC21 (stereo not given)
inactive: [1] 95 % of control | [2] 113 % of control | [3] 104 % of control | [21] 116 % of control | [22] 87 % of control

NCCc1cnc2ccccc2n1
inactive: dose: 18.0 mg/kg/injection, schedule: Q01DX009 (ip), vehicle: saline 96 % of control | [4] 100 % of control | [21] 100 % of control | dose: 37.0 mg/kg/injection, schedule: Q01DX009 (ip), vehicle: saline 92 % of control | [5] 120 % of control | [22] 100 % of control | dose: 100.0 mg/kg/injection, schedule: Q04DX003 (ip), vehicle: saline 100 % of control

Cc1nnc2sc3c(Cl)c4nn5c(C)nnc5sc4c(Cl)c3nn12
inactive: [8] 92 % of control | [9] 100 % of control

[Au].c1ccc(-c2nn[nH]n2)cc1.c1ccc(P(c2ccccc2)c2ccccc2)cc1
inactive: dose: 6.25 mg/kg/injection, schedule: Q01DX009 (ip), vehicle: saline with Tween-80 104 % of control | [6] 106 % of control | [7] 123 % of control

O=c1nc(Oc2ccccc2)nc2ccc(Cl)nn12
inactive: [8] 105 % of control | [9] 116 % of control

S=C(/N=C1\CCC\C1=C/c1ccccc1)/N=C1\CCC\C1=C/c1ccccc1
inactive: [17] 100 % of control | [18] 109 % of control | [19] 115 % of control

COc1c2c(cc3oc4ccccc4c(=O)c13)CCCC2
inactive: dose: 50.0 mg/kg/injection, schedule: Q01DX005 (ip), vehicle: saline with Tween-80 100 % of control | dose: 100.0 mg/kg/injection, schedule: Q01DX005 (ip), vehicle: saline with Tween-80 96 % of control | dose: 200.0 mg/kg/injection, schedule: Q01DX005 (ip), vehicle: saline with Tween-80 87 % of control
